The subject of data set [1] is HBV viral load in AD38 cells. In words: Viral load production in AD38 cells, quantitative PCR of the core sequence in supernatant. The following applies: Hepatitis B virus, 144 h, 10 μM compound, 6 days at 37° C., supernatant qPCR, relative to DMSO control; read-out: AD38 Viral Load (%) (VL with cmpd/VL in DMSO control) at 10 μM. The format is cell-based. Here is the method: (§1) Example 2: Assay Measuring Activity of Compounds on Viral Production in and on Viability of AD38 Cells
(§2) AD38 cells were then re-suspended with 10 mL of Treatment Medium and counted. Wells of a collagen coated 96-well NUNC microtiter plate were seeded at 50,000/well in 180 μL of Treatment Medium, and 20 μL of in treatment media with either 10% DMSO (Control) or a 10× solution of compound in 10% DMSO was added. Plates were incubated for 6 days at 37° C.
Viral load production was assayed by quantitative PCR of the core sequence. […] The PCR mixture was incubated at 45° C. for 5 minutes, then 95° C. for 10 min, followed by 40 cycles of 10 seconds at 95° C. and 20 seconds at 60° C. Viral load was quantitated against known standards by using ViiA™ 7 Software. Viral load in the supernatant from wells with treated cells were compared against viral load in supernatant from DMSO control wells (>3 per plate).

Data set [2] deals with AD38 cells. In words: Viability of AD38 cells (Promega CellTiter-Glo). Type of data set: cell-based. Particulars: 10 μM compound, 6 days, CellTiter-Glo luminescence normalized to DMSO control (100%). Here is the method: as §1, §2
At the end of compound treatment period cell viability was assessed using a Promega CellTiter-Glo protocol. All supernatant was removed the previously treated 96-well microtiter plate, and 50 μL Tetracycline-free treatment medium (DMEM/F12 (1:1), 1× Pen/step (cat #: 30-002-CL, Mediatech, Inc), with 2% FBS, Tet-system approved (cat #: 631106, Clontech), and 1% DMSO was added back to each well. Another 50 μL of CellTiter-Glo reagent solution (Promega, G7573) was then added at room temperature and the contents mixed for 2 minutes on an orbital shaker to induce cell lysis. This was followed by incubation at room temperature for 10 minutes to stabilize the luminescent signal. The luminescence was recorded for 0.2 seconds per well on a Tecan multimode plate reader (Infinite M1000 pro). The luminescent signal from each well was normalized against that of untreated (DMSO) control wells. All results were reported percent viability (with controls being 100%).
A general note: Cellular ATP, detected with luciferase, serves as a proxy for viable cell number.

On to `CC(NC(=O)c1ccc2c(c1)NC(=O)c1ccccc1S2)c1cncs1` (racemic) [compound 1432, 11-oxo-N-(1-(thiazol-5-yl)ethyl)-10, 11-dihydrodibenzo [b, f] [1, 4] thiazepine-8-carboxamide], for which the activity at 10 µM in data set [1] came to 21.8%. Moreover, in data set [2], the “AD38 Viability Normalized Result (cmpd/DMSO %) at 10 μM” value is 101%.
In the case of `COC(=O)c1ccc(-c2ncc(CNC(=O)c3ccc4c(c3)NC(=O)c3ccccc3S4)s2)cc1` [1599-A, methyl 4-(5-((11-oxo-10, 11-dihydrodibenzo [b, f] [1, 4]thiazepine-8-carboxamido)methyl)thiazol-2-yl) benzoate], in data set [1], the activity at 10 µM was 50.9%. In data set [2], the “AD38 Viability Normalized Result (cmpd/DMSO %) at 10 μM” value is given as 98%.
In the case of `COC(=O)c1ccc(-c2ncc(CNC(=O)c3ccc4c(c3)NC(=O)c3ccccc3O4)s2)cc1` [1612-A, methyl 4-(5-((11-oxo-10, 11-dihydrodibenzo [b, f] [1, 4]oxazepine-8-carboxamido)methyl)thiazol-2-yl) benzoate], the activity at 10 µM in data set [1] turned out to be 12.4%. Further, in data set [2], the “AD38 Viability Normalized Result (cmpd/DMSO %) at 10 μM” value is recorded as 101%.
For `O=C(NCc1cnc(OCCOC2CCCCO2)s1)c1ccc2c(c1)NC(=O)c1ccccc1O2` (stereo not drawn) [1613-A, 11-oxo-N-((2-(2-((tetrahydro-2H-pyran-2-yl)oxy)ethoxy)thiazol-5-yl)methyl)-10, 11-dihydrodibenzo [b, f] [1, 4] oxazepine-8-carboxamide], the activity at 10 µM in data set [1] amounted to 11.5%. The “AD38 Viability Normalized Result (cmpd/DMSO %) at 10 μM” value in data set [2] came out at 95%.
With `O=C(NCc1cnc(-c2ccc([N+](=O)[O-])cc2)s1)c1ccc2c(c1)NC(=O)c1ccccc1S2(=O)=O` [1645-A], the activity at 10 µM in data set [1] was 0.3%. Besides, the “AD38 Viability Normalized Result (cmpd/DMSO %) at 10 μM” value in data set [2] was found to be 98%.
Turning to `Nc1ccc(-c2ncc(CNC(=O)c3ccc4c(c3)NC(=O)c3ccccc3S4(=O)=O)s2)cc1` [1645-B, N-((2-(4-aminophenyl)thiazol-5-yl)methyl)-11-oxo-10, 11-dihydrodibenzo [b, f] [1, 4] thiazepine-8-carboxamide 5,5-dioxide], the activity at 10 µM in data set [1] was found to be 77.8%. The “AD38 Viability Normalized Result (cmpd/DMSO %) at 10 μM” value in data set [2] amounted to 100%.
For `N#Cc1ccc(-c2ncc(CNC(=O)c3ccc4c(c3)NC(=O)c3ccccc3S4(=O)=O)s2)cc1` [1654-A, N-((2-(4-cyanophenyl)thiazol-5-yl)methyl)-11-oxo-10, 11-dihydrodibenzo [b, f] [1, 4] thiazepine-8-carboxamide 5,5-dioxide], in data set [1], the activity at 10 µM turned out to be 2.6%. In addition, the “AD38 Viability Normalized Result (cmpd/DMSO %) at 10 μM” value in data set [2] is reported as 68%.
As to `COc1ncc(-c2ncc(CNC(=O)c3ccc4c(c3)NC(=O)c3ccccc3S4(=O)=O)s2)cn1` [1671-A, N-((2-(2-methoxypyrimidin-5-yl)thiazol-5-yl)methyl)-11-oxo-10, 11-dihydrodibenzo [b, f] [1, 4] thiazepine-8-carboxamide 5,5-dioxide], in data set [1], the activity at 10 µM is 0.7%. In addition, in data set [2], the “AD38 Viability Normalized Result (cmpd/DMSO %) at 10 μM” value is reported as 111%.
As to `N#Cc1cccc(-c2ncc(CNC(=O)c3ccc4c(c3)NC(=O)c3ccccc3S4(=O)=O)s2)c1` [1677-A, N-((2-(3-cyanophenyl)thiazol-5-yl)methyl)-11-oxo-10, 11-dihydrodibenzo [b, f] [1, 4] thiazepine-8-carboxamide 5,5-dioxide], the activity at 10 µM in data set [1] worked out at 2.3%. For the same compound, the “AD38 Viability Normalized Result (cmpd/DMSO %) at 10 μM” value in data set [2] is given as 103%.
Consider `NC(=O)c1cccc(-c2ncc(CNC(=O)c3ccc4c(c3)NC(=O)c3ccccc3S4(=O)=O)s2)c1` [1677-B, N-((2-(3-carbamoylphenyl)thiazol-5-yl)methyl)-11-oxo-10, 11-dihydrodibenzo [b, f] [1, 4] thiazepine-8-carboxamide 5,5-dioxide], for which the activity at 10 µM in data set [1] came out at 2.4%. Further, the “AD38 Viability Normalized Result (cmpd/DMSO %) at 10 μM” value in data set [2] was determined as 89%.
As to `COc1ncc(-c2ncc(CNC(=O)c3ccc4c(c3)NC(=O)c3ccccc3O4)s2)cn1` [1709-A, N-((2-(2-methoxypyrimidin-5-yl)thiazol-5-yl)methyl)-11-oxo-10, 11-dihydrodibenzo [b, f] [1, 4] oxazepine-8-carboxamide], the activity at 10 µM in data set [1] is 29.5%. Further, the “AD38 Viability Normalized Result (cmpd/DMSO %) at 10 μM” value in data set [2] was found to be 106%.
Consider `N#Cc1cccc(-c2ncc(CNC(=O)c3ccc4c(c3)NC(=O)c3ccccc3O4)s2)c1` [1714-A], for which the activity at 10 µM in data set [1] came to 49.2%. The “AD38 Viability Normalized Result (cmpd/DMSO %) at 10 μM” value in data set [2] amounted to 106%.
On the same counts, the results for `COc1ccc(-c2ncc(CNC(=O)c3ccc4c(c3)NC(=O)c3ccccc3O4)s2)cc1C` [1736-A] are 14.1% and 97%.
For the compound `COc1c(C)cc(-c2ncc(CNC(=O)c3ccc4c(c3)NC(=O)c3ccccc3O4)s2)cc1C` [1738-A], in data set [1], the activity at 10 µM is 1.8%. For the same compound, the “AD38 Viability Normalized Result (cmpd/DMSO %) at 10 μM” value in data set [2] stood at 104%.
`N#Cc1ccc(-c2ncc(CNC(=O)c3ccc4c(c3)NC(=O)c3ccccc3O4)s2)cc1` [1770-A, N-((2-(4-cyanophenyl)thiazol-5-yl)methyl)-11-oxo-10, 11-dihydrodibenzo [b, f] [1, 4] oxazepine-8-carboxamide]: the activity at 10 µM in data set [1] is 29.8%. Also, in data set [2], the “AD38 Viability Normalized Result (cmpd/DMSO %) at 10 μM” value is given as 100%.
On to `COc1ccc(-c2ncc(CNC(=O)c3ccc4c(c3)NC(=O)c3ccccc3S4(=O)=O)s2)cc1C` [1804-A, N-((2-(4-methoxy-3-methylphenyl)thiazol-5-yl)methyl)-11-oxo-10, 11-dihydrodibenzo [b, f] [1, 4] thiazepine-8-carboxamide 5,5-dioxide], for which the activity at 10 µM in data set [1] was determined as 6.6%. In data set [2], the “AD38 Viability Normalized Result (cmpd/DMSO %) at 10 μM” value came out at 90%.
`COc1c(C)cc(-c2ncc(CNC(=O)c3ccc4c(c3)NC(=O)c3ccccc3S4(=O)=O)s2)cc1C` [1806-A, N-((2-(4-methoxy-3,5-dimethylphenyl)thiazol-5-yl)methyl)-11-oxo-10, 11-dihydrodibenzo [b, f] [1, 4] thiazepine-8-carboxamide 5,5-dioxide]: the activity at 10 µM in data set [1] was determined as 0.3%. Moreover, the “AD38 Viability Normalized Result (cmpd/DMSO %) at 10 μM” value in data set [2] is listed as 66%.
For the compound `COc1ccc(Cc2ncc(CNC(=O)c3ccc4c(c3)NC(=O)c3ccccc3S4(=O)=O)s2)cc1` [1823-A, N-((2-(4-methoxybenzyl)thiazol-5-yl)methyl)-11-oxo-10, 11-dihydrodibenzo [b, f] [1, 4] thiazepine-8-carboxamide 5,5-dioxide], in data set [1], the activity at 10 µM amounted to 5.8%. Further, the “AD38 Viability Normalized Result (cmpd/DMSO %) at 10 μM” value in data set [2] stood at 92%.
Regarding `COc1ccc(Cc2ncc(CNC(=O)c3ccc4c(c3)NC(=O)c3ccccc3O4)s2)cc1` [1835-A, N-((2-(4-methoxybenzyl)thiazol-5-yl)methyl)-11-oxo-10, 11-dihydrodibenzo [b, f] [1, 4] oxazepine-8-carboxamide], in data set [1], the activity at 10 µM turned out to be 0.3%. In addition, in data set [2], the “AD38 Viability Normalized Result (cmpd/DMSO %) at 10 μM” value stood at 89%.
As to `COc1ccc(-c2ncc(CNC(=O)c3ccc4c(c3)NC(=O)c3ccccc3S4(=O)=O)s2)nc1` [1879-A], in data set [1], the activity at 10 µM was found to be 2.5%. In addition, in data set [2], the “AD38 Viability Normalized Result (cmpd/DMSO %) at 10 μM” value is on record as 121%.
With `COc1ccnc(-c2ncc(CNC(=O)c3ccc4c(c3)NC(=O)c3ccccc3S4(=O)=O)s2)c1` [1880-A, N-((2-(4-methoxypyridin-2-yl)thiazol-5-yl)methyl)-11-oxo-10, 11-dihydrodibenzo [b, f] [1, 4] thiazepine-8-carboxamide 5,5-dioxide], the activity at 10 µM in data set [1] was determined as 0.7%. The “AD38 Viability Normalized Result (cmpd/DMSO %) at 10 μM” value in data set [2] amounted to 124%.

The record behind these values is patent US11814376B2, “Hepatitis b core protein modulators” (Assembly Biosciences, Inc., priority 2015, dated 2023).
